The numbers were not newly measured in article PMC6167001 (ACS Omega, 2018), which cites them from elsewhere.

In data set [1] the target is PRL76V (HIV-1 protease with mutation L76V).
Data set [2] has as its system HIV-1 mutants bearing L76V. The note with it: inclusion of L76V in mutants bearing three other resistance mutations.

With `COc1ccc(S(=O)(=O)N(C[C@H]2CCC(=O)N2)C[C@@H](O)[C@H](Cc2ccccc2)NC(=O)O[C@@H]2C[C@@H]3CCO[C@@H]3C2)cc1` [GRL-02031], the “increase in inhibition constant (Ki) for PRL76V in comparison to PRWT” value in data set [1] is “twofold”.

For the compound `Cc1cccc(C)c1OCC(=O)N[C@@H](Cc1ccccc1)[C@@H](O)C[C@H](Cc1ccccc1)NC(=O)[C@H](C(C)C)N1CCCNC1=O` [Compound 2, lopinavir], the “increase in resistance associated with L76V” value in data set [2] was “eightfold”. With `CC(C)(C)NC(=O)[C@@H]1C[C@@H]2CCCC[C@@H]2CN1C[C@@H](O)[C@H](Cc1ccccc1)NC(=O)[C@H](CC(N)=O)NC(=O)c1ccc2ccccc2n1` [Compound 6, saquinavir], in data set [2], the “increase in susceptibility associated with L76V” value was “eightfold”.
